Legend:
[1] = system: MMA Patient fibroblasts (GM01673); experiment: Mitochondrial morphology imaging in MMA patient fibroblasts (GM01673); format: cell-based; conditions: image compared with fragmented mitochondria in vehicle control
[2] = system: MMA Patient fibroblasts (TSI 3739); experiment: Mitochondrial morphology imaging in MMA patient fibroblasts (TSI 3739); format: cell-based; conditions: image compared with fragmented mitochondria in vehicle control
[3] = system: MMA Patient fibroblasts (GM00371); experiment: Mitochondrial morphology imaging in MMA patient fibroblasts (GM00371); format: cell-based; conditions: image compared with fragmented mitochondria in vehicle control
[4] = system: CD14+ monocytes differentiated to M1 macrophages; experiment: M1 differentiation assay (macrophage cytokine secretion, ELISA); format: cell-based, human; conditions: 10 uM
Experimental: Monocytes were isolated by positive isolation with CD14+ microbeads (Miltenyi, 130-050-201). Monocytes were 99% viable and were 96% purity as analyzed by FACS and CD14±(BD, 563561). 100,000 monocytes along with compounds at the dose of 10 and 50 μM were allowed to differentiate to macrophages with 10 ng/ml GMCSF (R&D,15-GM-050/CF) in RPMI complete media (Invitrogen, 22400089) with 15% FBS (Hyclone SV30087.03) and 1% Penicillin-Streptomycin (Gibco, 15140-122). On day 2 and 4 half the media was refreshed with fresh GM-CSF and compounds at 10 and 50 μM dose. On day 6 the macrophages were matured with GMCSF, IFN, (R&D 285-IF-100/CF) and LPS (Sigma, L6143) in the presence of 10 μM and 50 μM of compounds. After 24h, supernatant was collected for the measurement of TNFα (DKW, 1117202), IL6 (DKW, 1110602), IL10 (DKW, 1110003) by ELISA. Macrophages were detached gently on ice with EDTA (Invitrogen, 15575-038) and analyzed by FACS (BD LSR Fortessa, 853492). […]

SMILES	mitochondrial morphology (elongation and networking of mitochondria) [1]	mitochondrial morphology (elongation and networking of mitochondria) [2]	mitochondrial morphology (elongation and networking of mitochondria) [3]	% decrease in Macrophage IL-6 Secretion [4] [%]	% decrease in Macrophage TNFα Secretion [4] [%]
COC(=O)[C@H](CSC(=O)CCCNC(C)=O)NC(=O)CCNC(=O)[C@H](O)C(C)(C)CO [Compound 216, methyl (2R)-2-[3-[(2R)-2,4-dihydroxy-3,3-dimethylbutanamido]propanamido]-3-[(4-acetamidobutanoyl)sulfanyl]propanoate]	elongation and networking of mitochondria promoted	elongation and networking of mitochondria promoted	–	–	–
COC(=O)[C@H](CSC(=O)CCCN)NC(=O)CCNC(=O)[C@H](O)C(C)(C)CO [Compound 72, methyl (2R)-3-[(4-aminobutanoyl)sulfanyl]-2-[3-[(2R)-2,4-dihydroxy-3,3-dimethylbutanamido]propanamido]propanoate]	elongation and networking of mitochondria promoted	–	–	–	–
COC(=O)[C@H](CSC(=O)CCCO)NC(=O)CCNC(=O)[C@H](O)C(C)(C)CO [Compound 697, methyl (2R)-2-[3-[(2R)-2,4-dihydroxy-3,3-dimethylbutanamido]propanamido]-3-[(4-hydroxybutanoyl)sulfanyl]propanoate]	elongation and networking of mitochondria promoted	elongation and networking of mitochondria promoted	elongation and networking of mitochondria promoted	–	–
COC(=O)[C@H](CSC(=O)CCCOC(C)=O)NC(=O)CCNC(=O)[C@H](O)C(C)(C)CO [Compound 698, methyl (2R)-3-[[4-(acetyloxy)butanoyl]sulfanyl]-2-[3-[(2R)-2,4-dihydroxy-3,3-dimethylbutanamido]propanamido]propanoate]	elongation and networking of mitochondria promoted	elongation and networking of mitochondria promoted	–	–	–
CC(=O)NCCCC(=O)SC[C@H](NC(=O)CCNC(=O)[C@H](O)C(C)(C)CO)C(=O)O [Compound 215, (2R)-2-[3-[(2R)-2,4-dihydroxy-3,3-dimethylbutanamido]propanamido]-3-[(4-acetamidobutanoyl)sulfanyl]propanoic acid]	–	–	–	≥30	≥30

Reference: patent US20230093594A1, “PANTETHENOYLCYSTEINE DERIVATIVES AND USES THEREOF” (Comet Therapeutics, Inc., priority 2019, published 2023)
